Measurements published in patent US9539260B2, “Dihydro-benzo-oxazine and dihydro-pyrido-oxazine derivatives” (Novartis AG, priority 2012, dated 2017).
pIC50: −log10 of the molar value.

Tests used:
PI3K delta = PI3K delta (Homo sapiens (Human), UniProt O00329); test: Enzymatic PI3K delta isoform inhibition (lipid kinase activity, Kinase-Glo luminescence); type: biochemical; conditions: Enzymatic assay
How it was run: (§1)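 IC50s derive from 4-parameter logistic fits of % inhibition across 8 concentrations (usually 10 to 0.003 μM). Lipid kinase reaction: PI3K (10 nM) plus phosphatidylinositol (5 μg/mL) started with 2 μM ATP, stopped near 50% ATP depletion; leftover ATP quantified by Kinase-Glo luminescence.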

PI3K alpha = PI3K alpha (Homo sapiens (Human), UniProt P42336); test: Enzymatic PI3K alpha isoform inhibition (lipid kinase activity, Kinase-Glo luminescence); type: biochemical; conditions: Enzymatic assay
How it was run: as §1

PI3K alpha, sequence (P42336 other isoform, or with tags, fused parts or gaps): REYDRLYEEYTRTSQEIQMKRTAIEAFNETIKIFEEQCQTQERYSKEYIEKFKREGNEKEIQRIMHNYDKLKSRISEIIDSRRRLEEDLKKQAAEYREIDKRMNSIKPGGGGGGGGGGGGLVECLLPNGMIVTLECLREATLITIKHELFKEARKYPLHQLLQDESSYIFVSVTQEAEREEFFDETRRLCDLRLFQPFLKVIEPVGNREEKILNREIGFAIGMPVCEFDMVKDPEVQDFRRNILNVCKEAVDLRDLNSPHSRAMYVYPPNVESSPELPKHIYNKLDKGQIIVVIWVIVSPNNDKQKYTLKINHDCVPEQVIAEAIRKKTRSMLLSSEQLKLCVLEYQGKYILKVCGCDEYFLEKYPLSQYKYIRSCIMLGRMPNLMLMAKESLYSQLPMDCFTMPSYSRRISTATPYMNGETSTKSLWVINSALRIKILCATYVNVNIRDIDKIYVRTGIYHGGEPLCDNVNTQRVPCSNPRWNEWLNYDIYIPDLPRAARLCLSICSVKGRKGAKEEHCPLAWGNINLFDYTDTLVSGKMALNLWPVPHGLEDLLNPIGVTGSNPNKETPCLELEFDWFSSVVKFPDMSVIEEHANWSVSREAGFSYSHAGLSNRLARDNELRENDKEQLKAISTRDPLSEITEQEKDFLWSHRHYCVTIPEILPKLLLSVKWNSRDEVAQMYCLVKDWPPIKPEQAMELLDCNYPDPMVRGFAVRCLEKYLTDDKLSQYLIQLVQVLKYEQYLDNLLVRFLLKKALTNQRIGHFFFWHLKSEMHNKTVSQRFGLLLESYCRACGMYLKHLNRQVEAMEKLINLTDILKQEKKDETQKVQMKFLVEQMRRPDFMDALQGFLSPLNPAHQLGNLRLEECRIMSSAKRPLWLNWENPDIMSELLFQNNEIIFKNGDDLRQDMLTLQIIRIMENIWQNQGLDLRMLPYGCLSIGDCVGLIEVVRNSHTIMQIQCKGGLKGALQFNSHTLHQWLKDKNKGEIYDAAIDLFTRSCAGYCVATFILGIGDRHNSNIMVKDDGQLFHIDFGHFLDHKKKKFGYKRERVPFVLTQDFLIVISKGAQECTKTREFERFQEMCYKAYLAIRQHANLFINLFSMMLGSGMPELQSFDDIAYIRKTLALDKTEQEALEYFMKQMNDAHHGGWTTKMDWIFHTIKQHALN
PI3K delta, sequence (O00329 other isoform, or with tags, fused parts or gaps linker GGGGGG): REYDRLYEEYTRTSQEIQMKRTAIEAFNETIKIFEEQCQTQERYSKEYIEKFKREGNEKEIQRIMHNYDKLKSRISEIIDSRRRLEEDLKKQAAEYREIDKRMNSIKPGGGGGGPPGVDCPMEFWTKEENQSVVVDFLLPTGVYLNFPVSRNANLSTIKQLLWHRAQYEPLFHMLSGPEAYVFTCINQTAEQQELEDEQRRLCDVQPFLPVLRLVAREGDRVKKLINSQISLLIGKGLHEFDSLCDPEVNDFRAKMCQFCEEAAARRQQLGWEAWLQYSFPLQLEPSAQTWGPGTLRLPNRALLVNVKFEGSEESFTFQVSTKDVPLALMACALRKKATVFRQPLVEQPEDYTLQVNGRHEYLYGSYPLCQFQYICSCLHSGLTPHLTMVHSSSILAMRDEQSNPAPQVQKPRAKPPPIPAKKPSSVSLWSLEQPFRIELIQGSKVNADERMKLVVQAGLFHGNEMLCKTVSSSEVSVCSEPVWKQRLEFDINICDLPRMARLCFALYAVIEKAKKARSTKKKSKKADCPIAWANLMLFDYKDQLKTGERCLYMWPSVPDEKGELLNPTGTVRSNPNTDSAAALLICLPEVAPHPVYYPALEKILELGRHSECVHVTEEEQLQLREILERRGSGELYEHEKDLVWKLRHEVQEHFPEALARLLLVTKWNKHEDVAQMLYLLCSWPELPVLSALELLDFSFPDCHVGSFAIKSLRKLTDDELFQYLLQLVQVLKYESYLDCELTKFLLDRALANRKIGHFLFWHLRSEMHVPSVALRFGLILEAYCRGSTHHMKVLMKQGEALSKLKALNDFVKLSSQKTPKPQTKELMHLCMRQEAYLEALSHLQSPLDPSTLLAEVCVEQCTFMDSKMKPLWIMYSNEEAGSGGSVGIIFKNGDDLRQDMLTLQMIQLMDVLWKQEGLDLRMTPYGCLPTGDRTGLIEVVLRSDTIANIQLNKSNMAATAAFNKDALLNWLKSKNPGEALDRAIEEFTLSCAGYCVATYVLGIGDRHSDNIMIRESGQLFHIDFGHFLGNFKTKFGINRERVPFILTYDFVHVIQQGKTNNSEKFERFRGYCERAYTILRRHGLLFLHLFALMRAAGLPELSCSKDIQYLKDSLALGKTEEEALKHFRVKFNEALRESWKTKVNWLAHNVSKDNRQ

pIC50 (PI3K delta)	pIC50 (PI3K alpha)	Compound
7.64	6.45	COc1ncc(N2CCOc3ccc(O[C@H]4CCN(C(=O)CS(C)(=O)=O)C4)cc32)cc1C#N [Example C11, 5-{6-[(S)-1-(2-Methanesulfonyl-acetyl)-pyrrolidin-3-yloxy]-2,3-dihydro-benzo[1,4]oxazin-4-yl}-2-methoxy-nicotinonitrile]
6.94	6.52	COc1ncc(N2CCOc3ccc(O[C@H]4CCN(C(=O)c5nnc(C)o5)C4)cc32)cc1C#N [Example C12, 2-Methoxy-5-{6-[(S)-1-(5-methyl-[1,3,4]oxadiazole-2-carbonyl)-pyrrolidin-3-yloxy]-2,3-dihydro-benzo[1,4]oxazin-4-yl}-nicotinonitrile]
7.11	6.18	COc1ncc(N2CCOc3ccc(O[C@H]4CCN(C(=O)c5cncnc5)C4)cc32)cc1C#N [Example C13, 2-Methoxy-5-{6-[(S)-1-(pyrimidine-5-carbonyl)-pyrrolidin-3-yloxy]-2,3-dihydro-benzo[1,4]oxazin-4-yl}-nicotinonitrile]
8.30	6.60	COc1ncc(N2CCOc3ccc(O[C@H]4CCN(C(=O)c5cncs5)C4)cc32)cc1C#N [Example C14, 2-Methoxy-5-{6-[(S)-1-(thiazole-5-carbonyl)-pyrrolidin-3-yloxy]-2,3-dihydro-benzo[1,4]oxazin-4-yl}-nicotinonitrile]
7.77	6.42	COc1ncc(N2CCOc3ccc(O[C@H]4CCN(C(=O)c5cnccn5)C4)cc32)cc1C#N [Example C15, 2-Methoxy-5-{6-[(S)-1-(pyrazine-2-carbonyl)-pyrrolidin-3-yloxy]-2,3-dihydro-benzo[1,4]oxazin-4-yl}-nicotinonitrile]
7.82	6.32	COc1ncc(N2CCOc3ccc(O[C@H]4CCN(C(=O)c5cccnc5)C4)cc32)cc1C#N [Example C16, 2-Methoxy-5-{6-[(S)-1-(pyridine-3-carbonyl)-pyrrolidin-3-yloxy]-2,3-dihydro-benzo[1,4]oxazin-4-yl}-nicotinonitrile]
8.10	6.45	COc1ncc(N2CCOc3ccc(O[C@H]4CCN(C(=O)c5ccncc5)C4)cc32)cc1C#N [Example C17, 2-Methoxy-5-{6-[(S)-1-(pyridine-4-carbonyl)-pyrrolidin-3-yloxy]-2,3-dihydro-benzo[1,4]oxazin-4-yl}-nicotinonitrile]
7.92	6.37	COc1ncc(N2CCOc3ccc(O[C@H]4CCN(C(=O)c5cn(C)nc5C)C4)cc32)cc1C#N [Example C18, 5-{6-[(S)-1-(1,3-Dimethyl-1H-pyrazole-4-carbonyl)-pyrrolidin-3-yloxy]-2,3-dihydro-benzo[1,4]oxazin-4-yl}-2-methoxy-nicotinonitrile]
7.68	6.31	COc1ncc(N2CCOc3ccc(O[C@H]4CCN(C(=O)C5CNC(=O)C5)C4)cc32)cc1C#N (stereo partly drawn) [Example C19, 2-Methoxy-5-{6-[(S)-1-(5-oxo-pyrrolidine-3-carbonyl)-pyrrolidin-3-yloxy]-2,3-dihydro-benzo[1,4]oxazin-4-yl}-nicotinonitrile]
8.22	6.71	COc1ncc(N2CCOc3ccc(O[C@H]4CCN(C(=O)c5oc(C)nc5C)C4)cc32)cc1C#N [Example C20, 5-{6-[(S)-1-(2,4-Dimethyl-oxazole-5-carbonyl)-pyrrolidin-3-yloxy]-2,3-dihydro-benzo[1,4]oxazin-4-yl}-2-methoxy-nicotinonitrile]
7.55	6.16	COc1ncc(N2CCOc3ccc(O[C@H]4CCN(C(=O)C5=CC(=O)CC(C)(C)O5)C4)cc32)cc1C#N [Example C21, 5-{6-[(S)-1-(6,6-Dimethyl-4-oxo-5,6-dihydro-4H-pyran-2-carbonyl)-pyrrolidin-3-yloxy]-2,3-dihydro-benzo[1,4]oxazin-4-yl}-2-methoxy-nicotinonitrile]
7.70	6.69	COc1ncc(N2CCOc3ccc(O[C@H]4CCN(C(=O)c5cnn6cccnc56)C4)cc32)cc1C#N [Example C22, 2-Methoxy-5-{6-[(S)-1-(pyrazolo[1,5-a]pyrimidine-3-carbonyl)-pyrrolidin-3-yloxy]-2,3-dihydro-benzo[1,4]oxazin-4-yl}-nicotinonitrile]

Continued, molecule first:

Compound	pIC50 (PI3K delta)	pIC50 (PI3K alpha)
COCCC(=O)N1CC[C@H](Oc2ccc3c(c2)N(c2cnc(OC)c(F)c2)CCO3)C1 [Example B114, 1-{(S)-3-[4-(5-Fluoro-6-methoxy-pyridin-3-yl)-3,4-dihydro-2H-benzo[1,4]oxazin-6-yloxy]-pyrrolidin-1-yl}-3-methoxy-propan-1-one]	7.15	5.84
COc1ncc(N2CCOc3ccc(O[C@H]4CCN(C(=O)CC#N)C4)cc32)cc1F [Example B116, 3-{(S)-3-[4-(5-Fluoro-6-methoxy-pyridin-3-yl)-3,4-dihydro-2H-benzo[1,4]oxazin-6-yloxy]-pyrrolidin-1-yl}-3-oxo-propionitrile]	7.66	6.52
COc1ncc(N2CCOc3ccc(O[C@H]4CCN(C(=O)[C@H]5CC[C@H](O)CC5)C4)cc32)cc1F [Example B117, {(S)-3-[4-(5-Fluoro-6-methoxy-pyridin-3-yl)-3,4-dihydro-2H-benzo[1,4]oxazin-6-yloxy]-pyrrolidin-1-yl}-(4-hydroxy-cyclohexyl)-methanone]	8.10	5.92
COc1ncc(N2CCOc3ccc(O[C@H]4CCN(C(=O)[C@H]5CC[C@@H](O)CC5)C4)cc32)cc1F [Example B118, {(S)-3-[4-(5-Fluoro-6-methoxy-pyridin-3-yl)-3,4-dihydro-2H-benzo[1,4]oxazin-6-yloxy]-pyrrolidin-1-yl}-(4-hydroxy-cyclohexyl)-methanone]	8.00	6.30
COc1ncc(N2CCOc3ccc(O[C@H]4CCN(C(=O)C5CCS(=O)(=O)CC5)C4)cc32)cc1C(F)F [Example B119, {(S)-3-[4-(5-Difluoromethyl-6-methoxy-pyridin-3-yl)-3,4-dihydro-2H-benzo[1,4]oxazin-6-yloxy]-pyrrolidin-1-yl}-(1,1-dioxo-hexahydro-6-thiopyran-4-yl)-methanone]	8.22	6.91
COc1ncc(N2CCOc3ccc(O[C@H]4CCN(C(=O)C5CCOCC5)C4)cc32)cc1C(F)F [Example B120, {(S)-3-[4-(5-Difluoromethyl-6-methoxy-pyridin-3-yl)-3,4-dihydro-2H-benzo[1,4]oxazin-6-yloxy]-pyrrolidin-1-yl}-(tetrahydro-pyran-4-yl)-methanone]	8.22	7.06
CCC(=O)N1CC[C@H](Oc2ccc3c(c2)N(c2ccc([S+]([O-])CC)nc2)CCO3)C1 (stereo partly drawn) [Example B121, 1-{(S)-3-[4-(6-Ethanesulfinyl-pyridin-3-yl)-3,4-dihydro-2H-benzo[1,4]oxazin-6-yloxy]-pyrrolidin-1-yl}-propan-1-one]	7.12	5.47
COc1ncc(N2CCOc3ccc(O[C@H]4CCN(C(=O)[C@@H]5CCN(C(C)=O)C5)C4)cc32)cc1C [Example B122, 1-((R)-3-{(S)-3-[4-(6-Methoxy-5-methyl-pyridin-3-yl)-3,4-dihydro-2H-benzo[1,4]oxazin-6-yloxy]-pyrrolidine-1-carbonyl}-pyrrolidin-1-yl)-ethanone]	7.62	6.37
COc1ncc(N2CCOc3ccc(O[C@@H]4CCN(C(=O)C5CCOCC5)C4)cc32)cc1C#N [Example C2, 2-Methoxy-5-{6-[(R)-1-(tetrahydro-pyran-4-carbonyl)-pyrrolidin-3-yloxy]-2,3-dihydro-benzo[1,4]oxazin-4-yl}-nicotinonitrile]	6.61	5.91
CCC(=O)N1CC[C@@H](Oc2ccc3c(c2)N(c2ccc(OC)nc2)CCO3)C1 [Example C3, 1-{(R)-3-[4-(6-Methoxy-pyridin-3-yl)-3,4-dihydro-2H-benzo[1,4]oxazin-6-yloxy]-pyrrolidin-1-yl}-propan-1-one]	5.92	5.47
CCC(=O)N1CC[C@H](Oc2ccc3c(c2)N(c2ccc(OC)nc2)CCO3)C1 [Example C4, 1-{(S)-3-[4-(6-Methoxy-pyridin-3-yl)-3,4-dihydro-2H-benzo[1,4]oxazin-6-yloxy]-pyrrolidin-1-yl}-propan-1-one]	7.55	5.52
COc1ncc(N2c3cc(O[C@H]4CCN(C(=O)C5CCOCC5)C4)ccc3OCC2C)cc1C#N (stereo partly drawn) [Example C5, 2-Methoxy-5-{3-methyl-6-[(S)-1-(tetrahydro-pyran-4-carbonyl)-pyrrolidin-3-yloxy]-2,3-dihydro-benzo[1,4]oxazin-4-yl}-nicotinonitrile]	7.02	5.26
COc1ncc(N2c3cc(O[C@H]4CCN(C(=O)C5CCOCC5)C4)ccc3OCC2C)cc1C#N (stereo partly drawn) [Example C6, 2-Methoxy-5-{3-methyl-6-[(S)-1-(tetrahydro-pyran-4-carbonyl)-pyrrolidin-3-yloxy]-2,3-dihydro-benzo[1,4]oxazin-4-yl}-nicotinonitrile]	6.74	5.37
COc1ncc(N2CCOc3ccc(O[C@H]4CCN(C(=O)c5ccnn5C)C4)cc32)cc1C#N [Example C8, 2-Methoxy-5-{6-[(S)-1-(2-methyl-2H-pyrazole-3-carbonyl)-pyrrolidin-3-yloxy]-2,3-dihydro-enzo[1,4]oxazin-4-yl}-nicotinonitrile]	7.89	6.43
COc1ncc(N2CCOc3ccc(O[C@H]4CCN(C(=O)c5ccno5)C4)cc32)cc1C#N [Example C9, 5-{6-[(S)-1-(Isoxazole-5-carbonyl)-pyrrolidin-3-yloxy]-2,3-dihydro-benzo[1,4]oxazin-4-yl}-2-methoxy-nicotinonitrile]	8.22	6.73
COc1ncc(N2CCOc3ccc(O[C@H]4CCN(C(=O)c5cn[nH]c5)C4)cc32)cc1C#N [Example C10, 2-Methoxy-5-{6-[(S)-1-(1H-pyrazole-4-carbonyl)-pyrrolidin-3-yloxy]-2,3-dihydro-benzo[1,4]oxazin-4-yl}-nicotinonitrile]	7.82	6.83
